Experimental findings from patent US12503436B2, “Compounds and compositions for treating conditions associated with STING activity” (NOVARTIS PHARMA AG, priority 2021, dated 2025) are described below.

SMILES strings stand for the structures.

For orientation: EC50 means the concentration giving half of the maximal effect.

In the assay the target is STING (Homo sapiens, UniProt Q86WV6, G230A/H232R/R293Q/R71H). Briefly: STING reporter assay in THP1-Dual KO-IFNAR2 cells (2′3′cGAMP stimulation, luciferase reporter). It counts as cell-based. The settings on record: 15 μM 2′3′cGAMP stimulation, 24 h, read-out: Pharmaron, THP1_IFNAR2 STING 24 h Luci Normalized: GeoMean EC50. The method in brief: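 EC50 from secreted luciferase (QUANTI-Luc Plus luminescence of supernatant) after 24 h at 37 °C, 5% CO2. Cells: THP1-Dual KO-IFNAR2, treated with compound (0.0017-100 μM final) plus lipofected 2′3′cGAMP at 15 μM final.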
STING, sequence (Q86WV6 whole entry R71H/G230A/H232R/R293Q): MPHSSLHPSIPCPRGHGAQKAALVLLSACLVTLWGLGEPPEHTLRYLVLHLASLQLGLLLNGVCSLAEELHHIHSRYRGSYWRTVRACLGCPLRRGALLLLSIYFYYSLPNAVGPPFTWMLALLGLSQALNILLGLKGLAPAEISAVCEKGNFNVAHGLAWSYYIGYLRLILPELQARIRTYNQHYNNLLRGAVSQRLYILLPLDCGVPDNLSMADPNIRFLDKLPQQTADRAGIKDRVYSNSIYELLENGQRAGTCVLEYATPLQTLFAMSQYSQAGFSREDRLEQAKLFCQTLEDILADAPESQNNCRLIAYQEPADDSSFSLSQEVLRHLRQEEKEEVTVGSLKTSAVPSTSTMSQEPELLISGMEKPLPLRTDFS
In the case of `O=C(Nc1c[nH]c2ccc(CCOc3ccc(C(F)(F)F)cc3)cc12)C1CC1(F)Cl` (centres unmarked) [Compound 175, 2-chloro-2-fluoro-N-(5-(2-(4-(trifluoromethyl)phenoxy)ethyl)-1H-indol-3-yl)cyclopropane-1-carboxamide], the EC50 fell in the range of 200 to 1000 nM.
Then `COCC1(C(=O)Nc2c[nH]c3ccc(CCOc4ccc(C(F)(F)F)cc4)cc23)CC1` [Compound 176, 1-(methoxymethyl)-N-(5-{2-[4-(trifluoromethyl)phenoxy]ethyl}-1H-indol-3-yl)cyclopropane-1-carboxamide], with 200 to 1000 nM; and `O=C(Nc1c[nH]c2ccc(CCOc3ccc(C(F)(F)F)cc3)cc12)C1CC(Cl)C1` (centres unmarked) [Compound 177, 3-chloro-N-(5-(2-(4-(trifluoromethyl)phenoxy)ethyl)-1H-indol-3-yl)cyclobutane-1-carboxamide], with 200 to 1000 nM; and `CC1(C(=O)Nc2c[nH]c3ccc(CCOc4ccc(C(F)(F)F)cc4)cc23)CCOC1` (centres unmarked) [Compound 178, 3-methyl-N-(5-(2-(4-(trifluoromethyl)phenoxy)ethyl)-1H-indol-3-yl)tetrahydrofuran-3-carboxamide], with 200 to 1000 nM.
With `O=C(Nc1c[nH]c2ccc(CCOc3ccc(C(F)(F)F)cc3)cc12)[C@H]1C[C@@H](O)C1` [Compound 179, (1S,3S)-3-hydroxy-N-(5-{2-[4-(trifluoromethyl)phenoxy]ethyl}-1H-indol-3-yl)cyclobutane-1-carboxamide] the figure was 200 to 1000 nM; with `O=C(Nc1c[nH]c2ccc(OCCc3ccc(C(F)(F)F)cc3)cc12)C1CC(O)C1` (centres unmarked) [Compound 180, 3-hydroxy-N-(5-(4-(trifluoromethyl)phenethoxy)-1H-indol-3-yl)cyclobutane-1-carboxamide], 200 to 1000 nM.
With `O=C(Nc1c[nH]c2ccc(OCCc3ccc(C(F)(F)F)cc3)cc12)C1CC1(F)F` (centres unmarked) [Compound 181, 2,2-difluoro-N-(5-(4-(trifluoromethyl)phenethoxy)-1H-indol-3-yl)cyclopropane-1-carboxamide] the figure was 200 to 1000 nM.
In the case of `O=C(Nc1c[nH]c2ccc(OCC[C@@H]3C[C@@H]4CN(CC(F)(F)F)C[C@@H]4C3)cc12)C1CC1` [Compound 182, N-(5-(2-((3aR,5r,6aS)-2-(2,2,2-trifluoroethyl)octahydrocyclopenta[c]pyrrol-5-yl)ethoxy)-1H-indol-3-yl)cyclopropanecarboxamide], the EC50 is 200 to 1000 nM.
Consider `O=C(Nc1c[nH]c2ccc(OCCc3cnc(N4CCC(F)(F)CC4)c(F)c3)cc12)C1CC1` [Compound 183, N-(5-(2-(6-(4,4-difluoropiperidin-1-yl)-5-fluoropyridin-3-yl)ethoxy)-1H-indol-3-yl)cyclopropanecarboxamide], for which the EC50 was 200 to 1000 nM.
Then `CC(=O)Nc1c[nH]c2ccc(CCOc3cnc(C(F)(F)F)nc3)cc12` [Compound 184, N-(5-(2-((2-(trifluoromethyl)pyrimidin-5-yl)oxy)ethyl)-1H-indol-3-yl)acetamide], with 5000 to 100000 nM.
With `O=C(Nc1c[nH]c2ccc(OCCc3ccc(C(F)(F)F)cc3)cc12)C1(C(F)(F)F)CC1` [Compound 185, 1-(trifluoromethyl)-N-(5-(4-(trifluoromethyl)phenethoxy)-1H-indol-3-yl)cyclopropane-1-carboxamide] the figure was 200 to 1000 nM; with `CC(C)(C)C(=O)Nc1c[nH]c2ccc(OCCc3ccc(C(F)(F)F)cc3)cc12` [Compound 186, N-(5-(4-(trifluoromethyl)phenethoxy)-1H-indol-3-yl)pivalamide], 200 to 1000 nM.
For the compound `N#CC1CCC1C(=O)Nc1c[nH]c2ccc(OCCc3ccc(C(F)(F)F)cc3)cc12` (centres unmarked) [Compound 187, 2-cyano-N-(5-(4-(trifluoromethyl)phenethoxy)-1H-indol-3-yl)cyclobutane-1-carboxamide], the EC50 lay in the range of 200 to 1000 nM.
Then `N#C[C@@H]1C[C@@H]1C(=O)Nc1c[nH]c2ccc(OCCc3ccc(C(F)(F)F)cc3)cc12` [Compound 188, (1S,2R)-2-cyano-N-(5-(4-(trifluoromethyl)phenethoxy)-1H-indol-3-yl)cyclopropane-1-carboxamide], with 200 to 1000 nM; and `CC1(C(=O)Nc2c[nH]c3ccc(OCCc4ccc(C(F)(F)F)cc4)cc23)CCOC1` (centres unmarked) [Compound 189, 3-methyl-N-(5-(4-(trifluoromethyl)phenethoxy)-1H-indol-3-yl)tetrahydrofuran-3-carboxamide], with 200 to 1000 nM; and `O=C(Nc1c[nH]c2ccc(OCCc3ccc(C(F)(F)F)cc3)cc12)[C@H]1C[C@@H](O)C1` [Compound 190, (1S,3S)-3-hydroxy-N-(5-(4-(trifluoromethyl)phenethoxy)-1H-indol-3-yl)cyclobutanecarboxamide], with 200 to 1000 nM.
`CC1(C(=O)Nc2c[nH]c3ccc(OCCc4ccc(C(F)(F)F)cc4)cc23)CCCO1` (centres unmarked) [Compound 191, 2-methyl-N-(5-(4-(trifluoromethyl)phenethoxy)-1H-indol-3-yl)tetrahydrofuran-2-carboxamide]: the EC50 lay in the range of 200 to 1000 nM.
In the case of `CC1(C)CC1C(=O)Nc1c[nH]c2ccc(OCCc3ccc(C(F)(F)F)cc3)cc12` (centres unmarked) [Compound 192, 2,2-dimethyl-N-(5-(4-(trifluoromethyl)phenethoxy)-1H-indol-3-yl)cyclopropane-1-carboxamide], the EC50 was 40 to 200 nM.
Consider `N#CC1(C(=O)Nc2c[nH]c3ccc(OCCc4ccc(C(F)(F)F)cc4)cc23)CC1` [Compound 193, 1-cyano-N-(5-(4-(trifluoromethyl)phenethoxy)-1H-indol-3-yl)cyclopropane-1-carboxamide], for which the half-maximal effective concentration (EC50) was in the range of 200 to 1000 nM.
Then `CO[C@H]1C[C@H](C(=O)Nc2c[nH]c3ccc(OCCc4ccc(C(F)(F)F)nc4)cc23)C1` [Compound 194, trans-3-methoxy-N-(5-(2-(6-(trifluoromethyl)pyridin-3-yl)ethoxy)-1H-indol-3-yl)cyclobutane-1-carboxamide], with 200 to 1000 nM; and `O=C(Nc1c[nH]c2ccc(OCCc3ccc(C(F)(F)F)nc3)cc12)C1CN(CC(F)(F)F)C1` [Compound 195, 1-(2,2,2-trifluoroethyl)-N-(5-(2-(6-(trifluoromethyl)pyridin-3-yl)ethoxy)-1H-indol-3-yl)azetidine-3-carboxamide], with 200 to 1000 nM.
In the case of `CC(=O)Nc1c[nH]c2ccc(OCCn3ccc(C(F)(F)F)n3)cc12` [Compound 196, N-(5-(2-(3-(trifluoromethyl)-1H-pyrazol-1-yl)ethoxy)-1H-indol-3-yl)acetamide], the EC50 lay in the range of 5000 to 100000 nM.
Then `CC(=O)Nc1c[nH]c2ccc(OCCn3cc(C(F)(F)F)cn3)cc12` [Compound 197, N-(5-(2-(4-(trifluoromethyl)-1H-pyrazol-1-yl)ethoxy)-1H-indol-3-yl)acetamide], with 5000 to 100000 nM; and `CC(=O)Nc1c[nH]c2ccc(CCOc3ccc(C4(C)CCN(CC(F)(F)F)CC4)cc3)cc12` [Compound 198, N-(5-(2-(4-(4-methyl-1-(2,2,2-trifluoroethyl)piperidin-4-yl)phenoxy)ethyl)-1H-indol-3-yl)acetamide], with 200 to 1000 nM; and `CC(=O)Nc1c[nH]c2ccc(CCNc3ccc(C(F)(F)F)cn3)cc12` [Compound 199, N-(5-(2-((5-(trifluoromethyl)pyridin-2-yl)amino)ethyl)-1H-indol-3-yl)acetamide], with 1000 to 5000 nM.
In the case of `CC(C)(C)CC(=O)Nc1c[nH]c2ccc(OCCc3ccc(C(F)(F)F)cc3)cc12` [Compound 202, 3,3-dimethyl-N-(5-(4-(trifluoromethyl)phenethoxy)-1H-indol-3-yl)butanamide], the EC50 was 40 to 200 nM.
